Measurements as given in patent US4542137A, “Alkylaminodesoxy-1.4;3.6-dianhydrohexitol nitrates substituted by purine bases and pharmaceutical compositions” (priority 1980, dated 1985).
Where two headings read alike, the source gives them in different places.

What was measured:
[1] = tested on: isolated guinea pig hearts; assay: coronary flowthrough-increasing effectiveness on isolated guinea pig hearts according to Langendorff; settings: Cavia porcellus, 25 μg/ml in tyrode solution, Langendorff heart; for activation at 25 µg/mL: read-out: flowthrough (coronary), percentage change in comparison with the initial value
Experimental: After achieving the stationary state in the 30th minute, the hearts were each infused with 50 ml. tyrode solution with a content of test substance of, in each case, 25 μg./ml. Each test substance was tested on 3-6 hearts.
In each case, there was measured the inotropism, the flowthrough and the frequency, whereby the values given in Table I are average values of the percentage changes in comparison with the starting values.

[2] = tested on: isolated rat aorta preparations; assay: spasmolytic effectiveness on isolated rat aorta preparations (noradrenaline- and potassium chloride-induced contractions)
[3] = read-out: frequency, percentage change in comparison with the initial value
[4] = read-out: inotropism, percentage change in comparison with the initial value
[5] = read-out: ED50 for spasmolytic action, Noradrenaline spasm (50% inhibition)
[6] = read-out: ED50 for spasmolytic action, potassium chloride spasm (50% inhibition)

Structure (SMILES)	activation at 25 µg/mL [1] [%]	inhibition at 25 µg/mL [1, 3] [%]	inhibition at 25 µg/mL [1, 4] [%]	IC50 [2, 5] [nM]	IC50 [2, 6] [nM]	percent change from initial value at 25 µg/mL [1, 3] [%]
Cn1c(=O)c2c(ncn2CCCN[C@H]2CO[C@H]3[C@@H]2OC[C@@H]3O[N+](=O)[O-])n(C)c1=O [Example 1d, 5-(3-Theophyllin-7-ylpropyl)-amino-5-desoxy-1.4;3.6-dianhydro-L-iditol 2-nitrate]	56.4	1.95	1.29	560	2900	–
CN(CCCn1cnc2c1c(=O)n(C)c(=O)n2C)[C@H]1CO[C@H]2[C@@H]1OC[C@@H]2O[N+](=O)[O-] [Example 9c, 5-[N-Methyl-N-(3-theophyllin-7-ylpropyl)-amino]-5-desoxy-1.4;3.6-dianhydro-L-iditol 2-nitrate]	40.5	–	4.3	2950	45900	0
